The source made the active and inactive calls.
Columns and labels:
[1] = molecular target: T1, Polyadenylate-binding protein 1 (Homo sapiens, UniProt P11940); assay: PABP1 MLLE–PAM2 binding inhibitor potency, dose response, biochemical, fluorescence polarization, FITC-PAM2 peptide (AID 602259); format: functional; conditions: read-out: IC50_Mean
[2] = molecular target: T1, Polyadenylate-binding protein 1; assay: PABP1 MLLE–PAM2 interaction inhibitors, dose response, miRNA deadenylation inhibitor project, biochemical, fluorescence polarization, Cy5-PAM2 peptide, secondary (AID 602260); format: functional; conditions: read-out: IC50_Mean
H9c2 = assay: cells; format: functional, cell-based; conditions: Rattus norvegicus, H9c2, Myocardium
[3] = molecular target: T2, Corticotropin-releasing factor receptor 2/Corticotropin-releasing factor-binding protein (Homo sapiens, UniProt P24387+Q13324); assay: activators of CRF receptor 2 with binding protein – uHTS hits, confirmation (AID 602473); format: functional; conditions: read-out: EC50_Mean
T2 sequence (Q13324 whole entry): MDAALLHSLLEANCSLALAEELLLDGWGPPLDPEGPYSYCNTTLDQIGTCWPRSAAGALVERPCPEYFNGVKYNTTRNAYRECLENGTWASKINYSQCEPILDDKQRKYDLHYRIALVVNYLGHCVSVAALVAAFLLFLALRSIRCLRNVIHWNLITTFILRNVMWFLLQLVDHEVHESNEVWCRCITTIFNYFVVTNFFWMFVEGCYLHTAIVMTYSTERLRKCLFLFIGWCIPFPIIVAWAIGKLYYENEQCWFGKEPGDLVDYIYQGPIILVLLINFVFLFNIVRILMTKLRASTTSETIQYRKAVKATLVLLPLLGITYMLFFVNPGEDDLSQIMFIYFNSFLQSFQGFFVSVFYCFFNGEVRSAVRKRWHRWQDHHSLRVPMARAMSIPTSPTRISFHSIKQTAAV
T2 sequence (P24387 whole entry): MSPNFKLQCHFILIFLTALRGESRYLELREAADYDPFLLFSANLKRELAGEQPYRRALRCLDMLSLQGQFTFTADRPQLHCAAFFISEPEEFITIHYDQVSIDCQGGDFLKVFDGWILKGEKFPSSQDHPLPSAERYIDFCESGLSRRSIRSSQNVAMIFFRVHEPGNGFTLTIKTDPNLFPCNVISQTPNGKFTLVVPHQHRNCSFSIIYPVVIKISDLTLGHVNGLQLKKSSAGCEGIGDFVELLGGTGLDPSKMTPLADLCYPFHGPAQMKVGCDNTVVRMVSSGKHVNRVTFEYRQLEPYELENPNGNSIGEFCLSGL

[4] = Luminescence Cell-Based Dose Response HTS to Identify Activators of Luciferase Translation or Activity in H4 […] Cells. [Related pubchem assays: 1829 (Project Summary), 1814 (Primary HTS)]; format: functional
[5] = Luminescence Cell-Based Dose Confirmation HTS to Identify Activators of 5'UTR Stem-Loop Driven Alpha-Synuclein mRNA Translation in H4 Neuroglioblastoma Cells. [Related pubchem assays: 1829 (Project Summary), 1814 (Primary HTS)]; format: functional
H4 = assay: Luminescence Cell-Based Dose Response HTS to Identify Activators of 5'UTR Stem-Loop Driven Prion Protein mRNA Translation in H4 Neuroglioblastoma Cells. [Related pubchem assays: 1829 (Project Summary), 1814 (Primary HTS)]; format: functional; conditions: Homo sapiens
[6] = molecular target: T3, Microphthalmia-associated transcription factor (Homo sapiens, UniProt O75030); assay: TRPM1 promoter luciferase signal decrease, dose response, MITF inhibitor project, cell-based, SK-MEL-5, cherry-picked, set 3 (AID 493073); format: functional
T3 sequence (O75030 whole entry): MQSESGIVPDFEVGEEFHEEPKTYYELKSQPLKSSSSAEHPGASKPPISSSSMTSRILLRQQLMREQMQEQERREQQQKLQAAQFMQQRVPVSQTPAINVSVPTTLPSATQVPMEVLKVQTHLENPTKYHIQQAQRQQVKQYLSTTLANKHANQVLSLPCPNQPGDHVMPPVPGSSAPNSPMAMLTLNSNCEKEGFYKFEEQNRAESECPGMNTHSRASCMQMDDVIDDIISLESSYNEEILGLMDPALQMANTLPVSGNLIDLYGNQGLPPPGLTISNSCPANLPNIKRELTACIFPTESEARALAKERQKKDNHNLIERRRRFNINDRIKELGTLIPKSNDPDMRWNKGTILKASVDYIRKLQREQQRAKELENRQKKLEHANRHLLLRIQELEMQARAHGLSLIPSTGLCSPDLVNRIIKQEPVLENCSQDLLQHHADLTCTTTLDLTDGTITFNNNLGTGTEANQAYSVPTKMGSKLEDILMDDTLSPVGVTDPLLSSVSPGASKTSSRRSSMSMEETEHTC

Streptococcus = assay: Group A Streptococcus viability loss, dose response, counter-screen for streptokinase expression inhibitor project, luminescence, BacTiterGlo (AID 1915); format: functional, organism-based;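 also: potency for reduction of bacterial viability or growth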
Streptokinase A = molecular target: T4, Streptokinase A (Streptococcus pyogenes serotype M1, UniProt P10520); assay: S. pyogenes streptokinase expression inhibitors, potency, dose response, plasminogen activation absorbance, OD405 (AID 1914); format: functional, Streptococcus pyogenes M1 GAS;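 also: secreted streptokinase activity via plasminogen activation per viability signal from cell pellet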
T4 sequence (P10520 whole entry): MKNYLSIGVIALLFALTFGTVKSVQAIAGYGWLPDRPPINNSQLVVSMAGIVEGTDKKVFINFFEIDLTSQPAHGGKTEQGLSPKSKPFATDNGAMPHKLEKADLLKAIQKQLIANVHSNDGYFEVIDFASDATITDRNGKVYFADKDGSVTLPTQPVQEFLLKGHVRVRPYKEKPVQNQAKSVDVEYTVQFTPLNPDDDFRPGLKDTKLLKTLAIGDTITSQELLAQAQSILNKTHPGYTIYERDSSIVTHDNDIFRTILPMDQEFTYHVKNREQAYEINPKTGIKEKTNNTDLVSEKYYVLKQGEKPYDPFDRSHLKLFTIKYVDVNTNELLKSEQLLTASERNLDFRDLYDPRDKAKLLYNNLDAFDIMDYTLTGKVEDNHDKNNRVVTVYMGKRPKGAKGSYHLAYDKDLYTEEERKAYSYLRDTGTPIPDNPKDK

[7] = tested on: Streptococcus sp. 'group A'; assay: growth inhibition of control SK(-) GAS strain, dose response, counter-screen for streptokinase expression inhibitor project, luminescence, kanamycin, BacTiterGlo, confirmation (AID 1900); format: functional, organism-based
[8] = molecular target: T5, Sentrin-specific protease 6 (Homo sapiens, UniProt Q9GZR1); format: functional;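 also: Luminescence-based dose-response confirmatory assay of SENP6 inhibition, following up an ultra-high-throughput screen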
T5 sequence (Q9GZR1 whole entry): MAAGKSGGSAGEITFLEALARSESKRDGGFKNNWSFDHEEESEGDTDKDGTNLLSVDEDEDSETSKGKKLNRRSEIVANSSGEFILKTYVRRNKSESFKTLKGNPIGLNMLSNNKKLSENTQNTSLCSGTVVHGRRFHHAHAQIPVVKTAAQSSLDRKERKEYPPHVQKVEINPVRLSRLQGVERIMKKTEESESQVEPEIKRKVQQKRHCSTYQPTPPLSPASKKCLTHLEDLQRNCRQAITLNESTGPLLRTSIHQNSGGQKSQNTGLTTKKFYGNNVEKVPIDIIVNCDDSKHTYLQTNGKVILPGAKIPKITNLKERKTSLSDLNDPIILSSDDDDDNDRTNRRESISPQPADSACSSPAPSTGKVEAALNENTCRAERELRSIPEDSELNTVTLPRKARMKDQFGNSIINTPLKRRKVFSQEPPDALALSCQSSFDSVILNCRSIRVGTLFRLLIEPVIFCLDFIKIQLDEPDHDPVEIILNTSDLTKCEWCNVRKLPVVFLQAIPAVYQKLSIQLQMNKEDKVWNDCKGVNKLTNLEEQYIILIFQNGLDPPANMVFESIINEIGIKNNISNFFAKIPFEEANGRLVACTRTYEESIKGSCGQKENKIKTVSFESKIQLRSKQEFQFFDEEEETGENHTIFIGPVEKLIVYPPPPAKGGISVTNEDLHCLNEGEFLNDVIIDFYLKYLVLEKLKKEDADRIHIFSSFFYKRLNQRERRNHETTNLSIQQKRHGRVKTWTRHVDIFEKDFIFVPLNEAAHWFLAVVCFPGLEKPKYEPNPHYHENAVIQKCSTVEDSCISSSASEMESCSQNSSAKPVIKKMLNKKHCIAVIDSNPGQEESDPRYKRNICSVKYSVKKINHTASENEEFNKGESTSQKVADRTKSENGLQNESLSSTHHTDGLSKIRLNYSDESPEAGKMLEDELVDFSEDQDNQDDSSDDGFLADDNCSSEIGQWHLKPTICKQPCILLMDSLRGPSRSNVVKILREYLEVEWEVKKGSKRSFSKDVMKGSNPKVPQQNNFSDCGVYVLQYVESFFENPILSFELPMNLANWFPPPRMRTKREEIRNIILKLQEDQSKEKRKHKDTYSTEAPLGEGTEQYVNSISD

[9] = molecular target: T6, Sentrin-specific protease 7 (Homo sapiens, UniProt Q9BQF6); format: functional;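 also: Luminescence-based dose-response confirmation of ultra-high-throughput screening hits, measuring inhibition of SENP7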
T6 sequence (Q9BQF6 whole entry): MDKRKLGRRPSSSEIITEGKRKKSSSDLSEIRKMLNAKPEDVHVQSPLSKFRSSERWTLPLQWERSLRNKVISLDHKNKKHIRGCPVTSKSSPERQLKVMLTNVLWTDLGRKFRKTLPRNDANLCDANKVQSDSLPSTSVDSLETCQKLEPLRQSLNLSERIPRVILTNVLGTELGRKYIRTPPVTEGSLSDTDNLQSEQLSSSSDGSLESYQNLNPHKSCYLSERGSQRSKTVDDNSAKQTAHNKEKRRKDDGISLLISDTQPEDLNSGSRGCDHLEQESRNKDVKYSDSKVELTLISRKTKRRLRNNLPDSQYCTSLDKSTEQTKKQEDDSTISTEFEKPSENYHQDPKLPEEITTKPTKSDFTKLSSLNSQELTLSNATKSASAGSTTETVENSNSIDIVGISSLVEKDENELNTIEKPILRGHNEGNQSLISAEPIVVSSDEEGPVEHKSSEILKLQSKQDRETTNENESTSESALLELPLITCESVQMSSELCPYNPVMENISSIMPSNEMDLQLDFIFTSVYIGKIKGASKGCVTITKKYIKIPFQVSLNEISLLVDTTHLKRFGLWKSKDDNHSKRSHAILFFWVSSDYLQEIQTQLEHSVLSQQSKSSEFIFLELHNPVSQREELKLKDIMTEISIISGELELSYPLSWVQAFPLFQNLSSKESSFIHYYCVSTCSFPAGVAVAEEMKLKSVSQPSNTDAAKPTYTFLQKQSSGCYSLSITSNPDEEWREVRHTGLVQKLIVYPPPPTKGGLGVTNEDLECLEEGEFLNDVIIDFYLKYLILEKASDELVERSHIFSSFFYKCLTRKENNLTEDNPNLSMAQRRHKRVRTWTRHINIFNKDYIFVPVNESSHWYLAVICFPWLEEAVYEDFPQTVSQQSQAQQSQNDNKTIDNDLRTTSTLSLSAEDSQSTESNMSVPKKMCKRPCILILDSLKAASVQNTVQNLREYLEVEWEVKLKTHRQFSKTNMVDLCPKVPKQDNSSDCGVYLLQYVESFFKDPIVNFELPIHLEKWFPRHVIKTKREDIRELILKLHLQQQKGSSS

[10] = molecular target: T7, Sentrin-specific protease 8 (Homo sapiens, UniProt Q96LD8); format: functional;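 also: luminescence read-out of SENP8 inhibition, dose-response confirmation following an ultra-high-throughput screen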
T7 sequence (Q96LD8 whole entry): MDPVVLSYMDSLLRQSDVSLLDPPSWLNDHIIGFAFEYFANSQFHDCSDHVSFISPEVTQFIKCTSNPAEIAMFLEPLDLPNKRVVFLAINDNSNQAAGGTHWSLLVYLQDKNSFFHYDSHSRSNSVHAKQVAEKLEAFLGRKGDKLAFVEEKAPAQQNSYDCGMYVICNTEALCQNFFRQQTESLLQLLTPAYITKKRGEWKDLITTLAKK

T1 sequence (P11940 whole entry): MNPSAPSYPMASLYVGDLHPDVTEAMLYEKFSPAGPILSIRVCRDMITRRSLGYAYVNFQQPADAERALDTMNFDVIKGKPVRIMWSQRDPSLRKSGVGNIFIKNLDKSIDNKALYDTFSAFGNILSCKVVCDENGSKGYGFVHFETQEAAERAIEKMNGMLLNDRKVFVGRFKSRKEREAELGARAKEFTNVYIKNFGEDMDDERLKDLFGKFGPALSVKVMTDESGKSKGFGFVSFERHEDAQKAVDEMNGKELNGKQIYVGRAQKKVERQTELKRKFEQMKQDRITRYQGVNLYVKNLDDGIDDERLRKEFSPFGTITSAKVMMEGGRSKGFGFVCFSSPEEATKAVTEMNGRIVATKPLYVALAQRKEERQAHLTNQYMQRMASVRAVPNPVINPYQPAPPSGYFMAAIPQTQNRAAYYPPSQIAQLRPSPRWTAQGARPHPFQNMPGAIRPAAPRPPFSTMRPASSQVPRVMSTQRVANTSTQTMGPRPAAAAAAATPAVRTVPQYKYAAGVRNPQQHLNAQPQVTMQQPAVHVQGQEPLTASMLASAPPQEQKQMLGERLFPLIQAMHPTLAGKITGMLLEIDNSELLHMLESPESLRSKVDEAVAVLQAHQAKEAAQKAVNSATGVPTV

## c1cc2c3c(cccc3c1)NC1(CCCC1)N2
[1]
  IC50: > 66 µM (inactive)
[2]
  IC50: > 66 µM (inactive)

## COc1nccnc1NS(=O)(=O)c1ccc(NC(=S)NC(=O)/C=C/c2ccccc2)cc1
[1]
  IC50: > 66 µM (inactive)
[2]
  IC50: > 66 µM (inactive)

## COc1ccccc1CN(C(=O)CNC(=O)c1ccco1)C(C(=O)NCC1CCCO1)c1ccccc1 (configuration not stated)
H9c2
  IC50: > 79 µM (inactive)

## CCCCN1CC(COCc2ccccc2)Oc2cccc(OCCN3C(=O)[C@@H]4[C@H](C3=O)C3C=C[C@H]4C3)c2S1(=O)=O (some centres not stated)
H9c2
  IC50: > 79 µM (inactive)
[3]
  EC50: 5.15 µM (active)

## CCC(=O)Oc1cccc(C(=O)Nc2ccc(-c3nnc(-c4ccco4)o3)cc2)c1
[4]
  EC50: > 120 µM (not active)
[5]
  EC50: 3.89 µM (active)
H9c2
  IC50: 22.7 µM (active)
H4
  EC50: 6.33 µM (active)

## O=C(Nc1ccc(CN2CCOCC2)cc1)c1ccc(-c2cccc([N+](=O)[O-])c2)o1
H9c2
  IC50: > 79 µM (inactive)

## Nc1ccc(-c2cc3ccccc3c(=O)o2)cc1
[6]
  AC50: 0.293 µM (active)

## O=C(N/N=C/c1ccccn1)c1cc(-c2ccc(Cl)s2)n[nH]1
H9c2
  IC50: > 79 µM (inactive)

## COc1cc(C(=O)N/N=C/c2ccc(OC(=O)c3ccccc3Cl)cc2)ccc1O
H9c2
  IC50: > 79 µM (inactive)

## COc1ccccc1NS(=O)(=O)c1cc(NC(=O)CCc2nc(O)c3ccccc3n2)ccc1C
H9c2
  IC50: > 79 µM (inactive)

## Cc1cc(C)c(C(=O)CC(=O)c2ccccc2Cl)c(O)c1
Streptococcus
  EC50: 23.5 µM (active)
Streptokinase A
  EC50: > 150 µM (not active)
H9c2
  IC50: 11.7 µM (active)
[7]
  EC50: 7.46 µM (active)

## Cn1c(/C(C#N)=C/c2ccc(O)cc2)nc2ccccc21
[8]
  IC50: 28.3 µM (active)
[9]
  IC50: 12 µM (active)
[10]
  IC50: 45 µM (active)

## Cc1sc2nc(COC(=O)Cc3ccccc3)nc(O)c2c1C
H9c2
  IC50: 23.4 µM (active)

## COc1ccccc1N1C(=O)N(C(C)=O)C2C1Nc1ccccc1N2C (configuration not stated)
[6]
  AC50: 10.5 µM (active)

## CCOC(=O)C1=C(NC(=O)c2oc3ccccc3c2COC)Nc2ccccc2N=C1C
H9c2
  IC50: > 79 µM (inactive)

## COc1cc2c(cc1OC)C(SC)=NC1(CCCC1)C2
[6]
  AC50: 9.44 µM (active)

Reference: ChEMBL document CHEMBL1201862, “PubChem BioAssay data set” (2004)
